Source: US9765115B2, “Inhibitors of metastasis, methods of generating such inhibitors and their therapeutic applications” (Board of Supervisors of Louisiana State University acting …, priority 2011, dated 2017)
Positions count from the first letter of the chain named. Entries after “also recorded” stand apart in the source; their conditions may differ.

Key:
Format in all cases: cell-based
PC-3CTRΔESS cells = test: Matrigel in vitro invasion assay; conditions: 50 nM CT, 48 h
Procedure: Invasion experiments were conducted in Matrigel™ invasion chambers as previously described (Sabbisetti et al., 2005).
CT increases invasiveness, and even induces an invasive phenotype in non-invasive prostate cancer cells. The role of PDZ-binding motif in CT-stimulated invasion was examined. FIG. 2C depicts CTR-C PDZ-binding motif mutation and effects on cell invasion. PC-3V, PC-3 CTRwt and PC-3 CTRΔESS cells were added to upper insert of invasion chambers with or without 50 nM CT, and cells that passed through the Matrigel™ barrier were counted after 48 h. The results are expressed as mean number of invaded cells per 400× field ±SEM (n=6; *p<0.05 (PC-3V v PC-3CTR-wt); $ p<0.05 (PC-3CTR-wt v PC-3CTRΔESS); $$-p<0.05 (PC-3CTRwt+CT v PC-3CTRΔESS+CT) (one-way ANOVA and Newman-Keul's test)). Expression of CTRwt in PC-3 cells increased invasion by 2.5-fold (FIG. 2C).

CTR-ZO-1 interaction [1] = molecular target: T1, CTR-ZO-1 interaction (Homo sapiens, UniProt P30988); test: CTR-ZO-1 co-immunoprecipitation; conditions: for co-precipitation of ZO-1 by CTRwt: 3 min, PC-3 cells
T1 construct: PCR generated full length CTRwt and CTRΔESS cDNAs were cloned directionally into pcDNA3.1 mammalian expression vector; FLAG (N); expressed in transfected cells; host or cells: PC-31 / PC-3 cells stably expressing FLAG-CTRwt; ZO-1 is the cells' own
T1 sequence (P30988 25-474): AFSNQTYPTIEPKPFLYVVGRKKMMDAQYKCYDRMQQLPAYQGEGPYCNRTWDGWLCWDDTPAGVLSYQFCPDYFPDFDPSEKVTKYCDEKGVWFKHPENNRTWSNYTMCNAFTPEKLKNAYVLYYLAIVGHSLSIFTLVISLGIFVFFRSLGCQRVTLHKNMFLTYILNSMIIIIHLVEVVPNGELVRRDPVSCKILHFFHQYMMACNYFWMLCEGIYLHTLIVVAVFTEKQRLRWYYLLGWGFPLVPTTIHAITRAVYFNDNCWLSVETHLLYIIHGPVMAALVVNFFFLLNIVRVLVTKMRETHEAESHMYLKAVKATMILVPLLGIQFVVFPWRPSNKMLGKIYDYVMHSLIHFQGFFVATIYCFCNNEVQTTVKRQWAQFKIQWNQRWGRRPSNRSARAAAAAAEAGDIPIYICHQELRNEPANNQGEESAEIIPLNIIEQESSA
Procedure: (§1) Serum-starved PC-31-V, PC-31-CTRwt or PC-31-CTRΔESS cells (2×10^6 per 100 mm dish) were stimulated with or without 50 nM CT for 3 min, washed, and lysed in the IP buffer as previously described (von Zastrow et al., 1994). CTR in normalized lysate proteins was immunoprecipitated with anti-FLAG EZ-view beads (Sigma Chemical Co., St. Louis, Mo.), and eluted with FLAG peptide (600 μg/ml in PBS). CTR immunoprecipitates were processed for ZO-1 immunoblotting. To control for protein loading and transfer, the blots were stripped and reprobed with immunoprecipitating antibody.
(§2) PC-31 cells stably expressing either FLAG-CTRwt or FLAGCTRΔESS were treated with or without CT for 3 min. The analysis of FLAG-CTR IPs confirmed that only FLAG-CTRwt, but not FLAG-CTRΔESS, co-precipitated ZO-1 (FIG. 3B). […] The effect of multiple CT concentrations on CTR-ZO-1 co-precipitation was tested in PC-3 cells. […] However, co-precipitation of ZO-1 by CTRwt was strong in PC-3 cells stimulated with 10 nM CT, and was even stronger in the cells receiving 100 nM CT.
(§3) As shown above, CTR binds to ZO-1 through PDZ interaction (i.e. PDZ ligand on C-tail of CTR binds to the PDZ domain of ZO-1). To attenuate this binding, ZO-1 was saturated with a small C-terminal peptide of CTR sequence containing the PDZ-binding motif. Since ZO-1 is an intracellular membrane protein, the interfering peptide was delivered inside the plasma membrane. It has been shown that trans-activating transcriptional activator (TAT) protein (86-mer polypeptide) from HIV-1 enters mammalian cells when added to the surrounding media (Frankel et al., 1988; Green et al., 1989). Certain small regions of such proteins (10-16-mers) called protein transduction domains (PTDs), also efficiently traverse biological membranes (Elliott et al., 1997). Therefore, a fusion peptide Pep 1 was synthesized of TAT-peptide sequences of HIV virus and CTR-C(N-[…]-C (SEQ ID NO:2), CTR-C sequence underlined). The first experiment was to see if Pep I binds to ZO-1 in reversible fashion. For this, amino acid Y in Pep I was labeled with ^125I, and the binding with ZO-1 analyzed in the presence/absence of unlabeled Pep I (1000×; 20 μM). PC-3CTR-ZO-1-MYC cells were first incubated with unlabeled Pep I or control peptide (20 μM) for 5 min. The cells were then incubated with ^125I-pep I or C for 25 min. The cells were then washed in IP buffer, treated with DSP, and lysed. ZO-1 IPs were obtained, fractionated on SDS-PAGE, and autoradiographed. […] Next, whether Pep I competes with CTR for ZO-1 binding was tested. For this, PC-3-CTR-wt cells were treated with CT (50 nM) and or Pep I (50 μM) for 15 min. The CTR IPs were then immunoblotted and probed for ZO-1 immunoreactivity. […] Next, the biological impact of this phenomenon was examined by testing the effect of Pep I on CTR-stimulated invasion.

CTR-ZO-1 interaction [2] = molecular target: T2, CTR-ZO-1 interaction (Homo sapiens, UniProt P30988, E471A/S472A/S473A); test: CTR-ZO-1 co-immunoprecipitation; conditions: all CT concentrations
T2 construct: PCR generated full length CTRwt and CTRΔESS cDNAs were cloned directionally into pcDNA3.1 mammalian expression vector; FLAG (N); expressed in transfected cells; host or cells: PC-31 / PC-3 cells stably expressing FLAG-CTRwt; ZO-1 is the cells' own
T2 sequence (P30988 with tags, fused parts or gaps): T1 sequence (P30988 25-474) with E447A, S448A, S449A
Procedure: as §1, §2, §3

Substance: calcitonin [CT]
- increase in invasion (PC-3CTRΔESS cells): did not
- co-precipitation of ZO-1 by CTRwt (CTR-ZO-1 interaction [1]; 1 nM CT): barely detectable
- co-precipitation of ZO-1 by CTRwt (CTR-ZO-1 interaction [1]; 10 nM CT): strong
- co-precipitation of ZO-1 with CTRwt, activated versus dormant (CTR-ZO-1 interaction [1]; CT 50 nM): much more efficiently; also recorded: increased
- co-precipitation of ZO-1 by CTRΔESS (CTR-ZO-1 interaction [2]): not co-precipitated
